Measured values as given in ChEMBL document CHEMBL2163199, “Moderate chemical modifications of WAY-100635 improve the selectivity for 5-HT1A versus D4 receptors” (Bioorg Med Chem Lett, 2012).
Each block holds one compound with its values, some of them ahead of it. Active and inactive are the calls of the source. No cut-off for these calls is given here.

Experiments:
[1] = molecular target: T1, 5-hydroxytryptamine receptor 1A (Homo sapiens, UniProt P08908); test: biochemical
T1 sequence (P08908 whole entry): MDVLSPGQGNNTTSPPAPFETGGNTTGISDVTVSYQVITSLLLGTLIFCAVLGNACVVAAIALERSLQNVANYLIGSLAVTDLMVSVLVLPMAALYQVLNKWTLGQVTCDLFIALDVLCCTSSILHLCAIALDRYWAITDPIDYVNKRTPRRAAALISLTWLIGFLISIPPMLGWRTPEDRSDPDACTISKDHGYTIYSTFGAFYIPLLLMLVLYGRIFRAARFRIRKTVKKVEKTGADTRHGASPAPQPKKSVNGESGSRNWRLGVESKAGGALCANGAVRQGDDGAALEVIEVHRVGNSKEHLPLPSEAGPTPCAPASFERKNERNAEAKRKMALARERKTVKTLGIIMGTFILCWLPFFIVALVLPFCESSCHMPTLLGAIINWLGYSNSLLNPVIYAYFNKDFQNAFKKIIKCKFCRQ
Description: Displacement of [3H]8-OH-DPAT from human cloned 5-HT1A receptor expressed in CHO cells after 60 mins by liquid scintillation counting

[2] = molecular target: T2, D(4) dopamine receptor (Homo sapiens, UniProt P21917); test: biochemical
T2 sequence (P21917 whole entry): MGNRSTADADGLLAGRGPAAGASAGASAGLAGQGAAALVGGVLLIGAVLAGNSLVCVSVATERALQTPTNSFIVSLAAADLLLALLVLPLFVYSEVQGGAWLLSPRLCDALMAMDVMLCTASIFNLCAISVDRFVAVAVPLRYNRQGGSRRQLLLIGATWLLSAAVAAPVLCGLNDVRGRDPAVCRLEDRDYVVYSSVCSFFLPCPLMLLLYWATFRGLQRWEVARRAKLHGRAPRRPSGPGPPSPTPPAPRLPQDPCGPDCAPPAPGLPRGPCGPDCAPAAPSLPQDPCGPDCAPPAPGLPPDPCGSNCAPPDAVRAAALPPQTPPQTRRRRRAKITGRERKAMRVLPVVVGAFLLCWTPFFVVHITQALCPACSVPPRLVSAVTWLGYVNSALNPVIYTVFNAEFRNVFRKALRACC
Description: Displacement of [3H]-YM-09151-2 from human cloned D4 receptor expressed in Sf9 cells after 60 mins by liquid scintillation counting

[3] = buffer, pH 7.4
Description: Lipophilicity, log K of the compound in 50 mM PBS at pH 7.4-10 to 60% methanol mixture by HPLC method

[4] = molecular target: 5-hydroxytryptamine receptor 7 (Homo sapiens, UniProt P34969)
Description: Binding affinity to 5HT7 receptor by radioligand binding assay

[5] = molecular target: Histamine H3 receptor (Homo sapiens) (UniProt Q9Y5N1); test: Binding affinity to histamine H3 receptor at 10 uM by radioligand binding assay
[6] = molecular target: Muscarinic acetylcholine receptor M3 (Homo sapiens) (UniProt P20309); test: Binding affinity to muscarinic M3 receptor at 10 uM by radioligand binding assay
Muscarinic acetylcholine receptor M3 (Homo sapiens), sequence (P20309 whole entry, looked up): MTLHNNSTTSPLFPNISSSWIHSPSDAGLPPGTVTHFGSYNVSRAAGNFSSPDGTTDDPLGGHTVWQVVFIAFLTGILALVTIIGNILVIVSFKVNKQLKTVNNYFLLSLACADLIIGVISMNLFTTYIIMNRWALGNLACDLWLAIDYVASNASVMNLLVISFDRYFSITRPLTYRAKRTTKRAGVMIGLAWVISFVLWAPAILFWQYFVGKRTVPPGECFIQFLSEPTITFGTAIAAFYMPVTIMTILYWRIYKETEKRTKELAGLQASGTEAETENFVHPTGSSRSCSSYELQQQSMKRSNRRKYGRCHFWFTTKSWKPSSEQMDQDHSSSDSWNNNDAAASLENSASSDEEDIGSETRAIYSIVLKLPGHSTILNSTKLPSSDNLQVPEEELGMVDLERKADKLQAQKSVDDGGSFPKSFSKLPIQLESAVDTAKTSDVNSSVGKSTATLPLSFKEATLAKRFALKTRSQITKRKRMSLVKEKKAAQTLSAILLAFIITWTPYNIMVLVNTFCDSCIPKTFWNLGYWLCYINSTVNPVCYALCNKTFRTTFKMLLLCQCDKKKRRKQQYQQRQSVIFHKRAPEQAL

[7] = molecular target: 5-hydroxytryptamine receptor 2B (Homo sapiens, UniProt P41595); test: Binding affinity to 5HT2B receptor by radioligand binding assay; conditions: read-out: Ki(app)
5-hydroxytryptamine receptor 2B, sequence (P41595 whole entry): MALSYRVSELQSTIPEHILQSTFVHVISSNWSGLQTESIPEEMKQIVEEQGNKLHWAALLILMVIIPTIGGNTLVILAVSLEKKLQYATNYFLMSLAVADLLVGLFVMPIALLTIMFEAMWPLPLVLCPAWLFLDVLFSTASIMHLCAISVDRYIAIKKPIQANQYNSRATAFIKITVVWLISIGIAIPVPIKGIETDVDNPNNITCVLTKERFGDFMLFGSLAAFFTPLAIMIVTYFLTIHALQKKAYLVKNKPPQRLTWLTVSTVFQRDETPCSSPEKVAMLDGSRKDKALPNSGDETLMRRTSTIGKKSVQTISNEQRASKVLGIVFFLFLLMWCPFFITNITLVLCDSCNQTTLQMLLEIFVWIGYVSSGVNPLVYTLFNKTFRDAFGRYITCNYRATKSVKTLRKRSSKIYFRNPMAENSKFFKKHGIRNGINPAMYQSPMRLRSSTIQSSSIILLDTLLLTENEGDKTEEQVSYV

[8] = molecular target: 5-hydroxytryptamine receptor 1E (Homo sapiens) (UniProt P28566); test: Binding affinity to 5HT1E receptor at 10 uM by radioligand binding assay
[9] = molecular target: Muscarinic acetylcholine receptor M5 (Homo sapiens) (UniProt P08912); test: Binding affinity to muscarinic M5 receptor at 10 uM by radioligand binding assay
[10] = molecular target: Alpha-2A adrenergic receptor (Homo sapiens) (UniProt P08913); test: Binding affinity to adrenergic alpha2A receptor at 10 uM by radioligand binding assay
Alpha-2A adrenergic receptor (Homo sapiens), sequence (P08913 whole entry): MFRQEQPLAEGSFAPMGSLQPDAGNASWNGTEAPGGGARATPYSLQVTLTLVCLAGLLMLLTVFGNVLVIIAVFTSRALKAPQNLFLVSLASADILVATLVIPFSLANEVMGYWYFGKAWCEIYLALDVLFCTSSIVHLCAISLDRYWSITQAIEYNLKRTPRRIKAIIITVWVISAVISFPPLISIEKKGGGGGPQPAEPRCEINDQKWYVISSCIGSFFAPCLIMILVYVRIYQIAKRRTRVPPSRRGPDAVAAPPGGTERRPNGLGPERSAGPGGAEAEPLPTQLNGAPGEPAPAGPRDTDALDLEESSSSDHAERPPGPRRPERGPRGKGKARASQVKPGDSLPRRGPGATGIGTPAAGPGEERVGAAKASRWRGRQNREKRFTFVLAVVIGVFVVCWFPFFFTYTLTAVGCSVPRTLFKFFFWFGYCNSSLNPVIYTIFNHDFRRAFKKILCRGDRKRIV

[11] = molecular target: 5-hydroxytryptamine receptor 2C (Homo sapiens) (UniProt P28335); test: Binding affinity to 5HT2C receptor at 10 uM by radioligand binding assay
5-hydroxytryptamine receptor 2C (Homo sapiens), sequence (P28335 whole entry): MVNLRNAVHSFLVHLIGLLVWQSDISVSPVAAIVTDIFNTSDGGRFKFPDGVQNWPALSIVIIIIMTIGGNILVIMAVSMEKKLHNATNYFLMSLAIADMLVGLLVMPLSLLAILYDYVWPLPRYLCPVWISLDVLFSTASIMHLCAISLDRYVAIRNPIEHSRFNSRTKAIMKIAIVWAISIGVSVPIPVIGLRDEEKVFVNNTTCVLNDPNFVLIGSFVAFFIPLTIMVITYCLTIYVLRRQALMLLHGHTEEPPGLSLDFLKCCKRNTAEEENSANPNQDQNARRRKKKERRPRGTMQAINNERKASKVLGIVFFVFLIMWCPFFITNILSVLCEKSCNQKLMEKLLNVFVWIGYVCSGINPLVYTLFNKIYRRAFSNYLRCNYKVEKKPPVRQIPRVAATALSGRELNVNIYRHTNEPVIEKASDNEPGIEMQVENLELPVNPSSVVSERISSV

[12] = molecular target: T1, 5-hydroxytryptamine receptor 1A
Description: Binding affinity to 5HT1A receptor by radioligand binding assay

[13] = molecular target: Alpha-1B adrenergic receptor (Homo sapiens, UniProt P35368)
Description: Binding affinity to adrenergic alpha1B receptor by radioligand binding assay

[14] = molecular target: Alpha-1A adrenergic receptor (Homo sapiens, UniProt P35348); test: Binding affinity to adrenergic alpha1A receptor by radioligand binding assay; conditions: read-out: Ki(app)
Alpha-1A adrenergic receptor, sequence (P35348 whole entry): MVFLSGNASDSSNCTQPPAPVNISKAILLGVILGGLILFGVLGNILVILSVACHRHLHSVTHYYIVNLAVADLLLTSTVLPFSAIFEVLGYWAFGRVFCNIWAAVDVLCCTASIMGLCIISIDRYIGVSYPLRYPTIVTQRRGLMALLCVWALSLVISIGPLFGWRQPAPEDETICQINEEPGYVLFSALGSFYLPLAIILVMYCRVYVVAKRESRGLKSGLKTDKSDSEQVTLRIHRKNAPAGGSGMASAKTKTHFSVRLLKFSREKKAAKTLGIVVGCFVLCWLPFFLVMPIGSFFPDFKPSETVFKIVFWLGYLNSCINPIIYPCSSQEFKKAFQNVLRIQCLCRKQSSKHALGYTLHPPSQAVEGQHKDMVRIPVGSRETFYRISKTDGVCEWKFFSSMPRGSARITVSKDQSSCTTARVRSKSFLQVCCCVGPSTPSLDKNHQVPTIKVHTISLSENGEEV

[15] = molecular target: Beta-2 adrenergic receptor (Homo sapiens) (UniProt P07550); test: Binding affinity to adrenergic beta2 receptor at 10 uM by radioligand binding assay
[16] = molecular target: Alpha-2B adrenergic receptor (Homo sapiens) (UniProt P18089); test: Binding affinity to adrenergic alpha2B receptor at 10 uM by radioligand binding assay
[17] = molecular target: T3, 5-hydroxytryptamine receptor 1A (Rattus norvegicus) (UniProt P19327); test: Antagonist activity of 5-HT1A receptor in Wistar rat dorsal raphe serotonergic neuron assessed as reversal of 8-OH-DPAT-induced decrease in firing rate at 100 nM by electrophysiological test; format: functional; set-up: scale not given: the % may be the effect or the level left
T3 sequence (whole entry): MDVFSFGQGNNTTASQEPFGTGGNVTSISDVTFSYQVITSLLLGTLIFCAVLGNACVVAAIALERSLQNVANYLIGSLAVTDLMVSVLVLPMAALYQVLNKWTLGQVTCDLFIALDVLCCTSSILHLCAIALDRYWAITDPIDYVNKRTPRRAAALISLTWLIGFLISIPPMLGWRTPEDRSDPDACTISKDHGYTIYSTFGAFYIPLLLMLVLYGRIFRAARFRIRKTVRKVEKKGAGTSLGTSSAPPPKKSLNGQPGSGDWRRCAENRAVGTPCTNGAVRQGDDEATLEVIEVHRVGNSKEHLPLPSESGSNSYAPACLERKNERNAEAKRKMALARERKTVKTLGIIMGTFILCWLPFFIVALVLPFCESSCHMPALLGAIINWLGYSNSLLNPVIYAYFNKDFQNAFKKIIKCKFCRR

[18] = molecular target: 5-hydroxytryptamine receptor 3A (Homo sapiens) (UniProt P46098); test: Binding affinity to 5HT3 receptor at 10 uM by radioligand binding assay
[19] = molecular target: D(3) dopamine receptor (Homo sapiens) (UniProt P35462); test: Binding affinity to dopamine D3 receptor at 10 uM by radioligand binding assay
[20] = molecular target: Sigma non-opioid intracellular receptor 1 (Homo sapiens) (UniProt Q99720); test: Binding affinity to sigma 1 receptor at 10 uM by radioligand binding assay
Sigma non-opioid intracellular receptor 1 (Homo sapiens), sequence (Q99720 whole entry): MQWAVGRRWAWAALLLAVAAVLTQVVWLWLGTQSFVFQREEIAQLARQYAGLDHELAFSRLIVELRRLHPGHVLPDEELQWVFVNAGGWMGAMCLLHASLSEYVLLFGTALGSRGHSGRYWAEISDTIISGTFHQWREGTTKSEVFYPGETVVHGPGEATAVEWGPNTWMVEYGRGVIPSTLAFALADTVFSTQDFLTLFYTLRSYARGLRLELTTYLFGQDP

[21] = molecular target: 5-hydroxytryptamine receptor 6 (Homo sapiens) (UniProt P50406); test: Binding affinity to 5HT6 receptor at 10 uM by radioligand binding assay
[22] = molecular target: Beta-1 adrenergic receptor (Homo sapiens) (UniProt P08588); test: Binding affinity to adrenergic beta1 receptor at 10 uM by radioligand binding assay
Beta-1 adrenergic receptor (Homo sapiens), sequence (P08588 whole entry, looked up): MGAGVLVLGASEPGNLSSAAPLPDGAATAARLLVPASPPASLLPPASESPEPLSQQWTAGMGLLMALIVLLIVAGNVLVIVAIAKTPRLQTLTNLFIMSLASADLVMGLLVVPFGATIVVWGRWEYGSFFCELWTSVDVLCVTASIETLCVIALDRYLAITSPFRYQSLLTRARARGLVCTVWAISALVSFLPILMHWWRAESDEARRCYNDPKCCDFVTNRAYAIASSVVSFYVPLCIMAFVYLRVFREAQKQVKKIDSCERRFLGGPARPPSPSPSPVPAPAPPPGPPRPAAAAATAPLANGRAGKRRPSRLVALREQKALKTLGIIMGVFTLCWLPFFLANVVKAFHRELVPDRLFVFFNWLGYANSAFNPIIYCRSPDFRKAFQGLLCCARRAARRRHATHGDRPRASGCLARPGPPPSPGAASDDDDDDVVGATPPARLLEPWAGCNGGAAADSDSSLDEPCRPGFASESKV

[23] = molecular target: T3, 5-hydroxytryptamine receptor 1A (Rattus norvegicus); test: Agonist activity of 5-HT1A receptor in Wistar rat dorsal raphe serotonergic neuron assessed as inhibition of firing at 1 nM to 1 uM by electrophysiological test; format: functional
[24] = molecular target: D(1A) dopamine receptor (Homo sapiens) (UniProt P21728); test: Binding affinity to dopamine D1 receptor at 10 uM by radioligand binding assay
[25] = molecular target: Muscarinic acetylcholine receptor M2 (Homo sapiens) (UniProt P08172); test: Binding affinity to muscarinic M2 receptor at 10 uM by radioligand binding assay
[26] = Binding affinity to GABAA receptor at 10 uM by radioligand binding assay
[27] = molecular target: Beta-3 adrenergic receptor (Homo sapiens) (UniProt P13945); test: Binding affinity to adrenergic beta3 receptor at 10 uM by radioligand binding assay
Beta-3 adrenergic receptor (Homo sapiens), sequence (P13945 whole entry, looked up): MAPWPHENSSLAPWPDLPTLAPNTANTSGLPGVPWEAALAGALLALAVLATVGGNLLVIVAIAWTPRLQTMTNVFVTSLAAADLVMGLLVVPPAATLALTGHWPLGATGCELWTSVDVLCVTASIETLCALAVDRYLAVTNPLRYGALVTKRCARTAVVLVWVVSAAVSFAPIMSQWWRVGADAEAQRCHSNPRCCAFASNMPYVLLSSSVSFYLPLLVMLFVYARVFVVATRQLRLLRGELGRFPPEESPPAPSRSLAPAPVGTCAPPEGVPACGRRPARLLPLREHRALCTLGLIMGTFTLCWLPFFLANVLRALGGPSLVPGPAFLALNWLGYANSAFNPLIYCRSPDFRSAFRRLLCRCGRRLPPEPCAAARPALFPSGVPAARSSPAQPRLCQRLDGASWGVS

[28] = Binding affinity to sigma 2 receptor at 10 uM by radioligand binding assay
[29] = molecular target: Muscarinic acetylcholine receptor M1 (Homo sapiens) (UniProt P11229); test: Binding affinity to muscarinic M1 receptor at 10 uM by radioligand binding assay
[30] = molecular target: 5-hydroxytryptamine receptor 2A (Homo sapiens, UniProt P28223); test: Binding affinity to 5HT2A receptor by radioligand binding assay; conditions: read-out: Ki(app)
5-hydroxytryptamine receptor 2A, sequence (P28223 whole entry): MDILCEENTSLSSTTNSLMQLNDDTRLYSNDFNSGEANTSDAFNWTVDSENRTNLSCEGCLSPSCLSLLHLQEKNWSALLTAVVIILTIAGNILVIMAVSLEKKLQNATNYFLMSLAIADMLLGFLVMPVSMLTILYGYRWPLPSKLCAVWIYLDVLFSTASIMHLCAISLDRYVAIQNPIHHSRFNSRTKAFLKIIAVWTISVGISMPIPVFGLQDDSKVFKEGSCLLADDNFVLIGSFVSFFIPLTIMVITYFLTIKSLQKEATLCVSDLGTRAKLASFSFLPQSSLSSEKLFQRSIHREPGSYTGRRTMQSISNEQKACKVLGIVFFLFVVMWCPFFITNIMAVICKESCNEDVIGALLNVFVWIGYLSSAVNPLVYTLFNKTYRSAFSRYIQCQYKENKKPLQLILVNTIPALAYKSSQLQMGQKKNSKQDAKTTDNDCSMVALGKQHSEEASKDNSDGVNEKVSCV

[31] = molecular target: D(2) dopamine receptor (Homo sapiens) (UniProt P14416); test: Binding affinity to dopamine D2 receptor at 10 uM by radioligand binding assay
D(2) dopamine receptor (Homo sapiens), sequence (P14416 whole entry): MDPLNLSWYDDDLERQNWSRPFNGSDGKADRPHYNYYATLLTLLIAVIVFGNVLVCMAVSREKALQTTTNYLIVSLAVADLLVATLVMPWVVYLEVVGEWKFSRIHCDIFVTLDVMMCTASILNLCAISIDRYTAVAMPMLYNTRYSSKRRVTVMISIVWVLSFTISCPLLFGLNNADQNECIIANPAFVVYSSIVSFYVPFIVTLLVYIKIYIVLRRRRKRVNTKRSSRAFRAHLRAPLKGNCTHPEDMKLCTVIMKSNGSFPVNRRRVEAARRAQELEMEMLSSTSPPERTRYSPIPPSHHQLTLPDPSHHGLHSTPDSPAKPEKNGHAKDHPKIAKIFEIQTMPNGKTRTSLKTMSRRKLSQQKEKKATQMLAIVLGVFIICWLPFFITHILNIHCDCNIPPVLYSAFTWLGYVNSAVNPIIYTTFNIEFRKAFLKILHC

[32] = molecular target: Sodium-dependent dopamine transporter (Homo sapiens) (UniProt Q01959); test: Binding affinity to DAT at 10 uM by radioligand binding assay
[33] = molecular target: 5-hydroxytryptamine receptor 5A (Homo sapiens) (UniProt P47898); test: Binding affinity to 5HT5A receptor at 10 uM by radioligand binding assay
[34] = molecular target: Muscarinic acetylcholine receptor M4 (Homo sapiens) (UniProt P08173); test: Binding affinity to muscarinic M4 receptor at 10 uM by radioligand binding assay
[35] = molecular target: T2, D(4) dopamine receptor
Description: Binding affinity to dopamine D4 receptor by radioligand binding assay

[36] = molecular target: 5-hydroxytryptamine receptor 1D (Homo sapiens) (UniProt P28221); test: Binding affinity to 5HT1D receptor at 10 uM by radioligand binding assay
[37] = molecular target: 5-hydroxytryptamine receptor 1B (Homo sapiens) (UniProt P28222); test: Binding affinity to 5HT1B receptor at 10 uM by radioligand binding assay
5-hydroxytryptamine receptor 1B (Homo sapiens), sequence (P28222 whole entry): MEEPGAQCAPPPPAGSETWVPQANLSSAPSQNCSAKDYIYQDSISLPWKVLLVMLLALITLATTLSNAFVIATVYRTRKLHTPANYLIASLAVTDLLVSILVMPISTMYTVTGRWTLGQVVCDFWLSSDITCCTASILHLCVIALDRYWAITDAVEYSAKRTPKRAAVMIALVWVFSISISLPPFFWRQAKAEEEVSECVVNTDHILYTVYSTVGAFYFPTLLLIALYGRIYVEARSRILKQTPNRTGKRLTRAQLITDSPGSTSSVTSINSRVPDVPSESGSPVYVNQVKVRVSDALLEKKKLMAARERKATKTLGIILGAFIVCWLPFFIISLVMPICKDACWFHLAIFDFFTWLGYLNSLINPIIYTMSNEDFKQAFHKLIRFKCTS

[38] = molecular target: D(1B) dopamine receptor (Homo sapiens) (UniProt P21918); test: Binding affinity to dopamine D5 receptor at 10 uM by radioligand binding assay
[39] = Binding affinity to rat benzodiazepine binding site at 10 uM by radioligand binding assay

Ki [1]: 35.8 nM
Ki [2]: 550 nM
log K [3]: 3.27
SMILES: O=C(c1cccc2ccccc12)N(CCN1CCN(c2ccccc2)CC1)c1ccccn1

Ki [1]: 2.48 nM
Ki [2]: 15 nM
log K [3]: 2.61
SMILES: COc1ccccc1N1CCN(CCN(C(=O)c2cnc3ccccc3n2)c2ccccn2)CC1

Ki [1]: 16.3 nM
Ki [2]: 807 nM
log K [3]: 3.48
SMILES: O=C(c1ccc2ccccc2c1)N(CCN1CCN(c2ccccc2)CC1)c1ccccn1

Ki [1]: 1.89 nM
Ki [2]: 69 nM
log K [3]: 3.26
SMILES: COc1ccccc1N1CCN(CCN(C(=O)c2cccc3ccccc23)c2ccccn2)CC1

Ki [1]: 36.2 nM
Ki [2]: 56.8 nM
log K [3]: 3.06
SMILES: O=C(c1cnc2ccccc2n1)N(CCN1CCN(c2ccccc2)CC1)c1ccccn1

Ki [1]: 1.61 nM
Ki [2]: 184 nM
log K [3]: 3.57
SMILES: COc1ccccc1N1CCN(CCN(C(=O)c2ccc3ccccc3c2)c2ccccn2)CC1

The next lines start with the compound.

SMILES: O=C(c1ccc2ccccc2c1)N(CCN1CC=C(c2ccccc2)CC1)c1ccccn1
Ki [1]: 8.36 nM
Ki [2]: 291 nM
log K [3]: 4.36

SMILES: O=C(C1CCCCC1)N(CCN1CC=C(c2ccccc2)CC1)c1ccccn1
Ki [4]: 60 nM
inhibition [5]: < 50%
inhibition [6]: < 50%
Ki [7]: 105 nM
inhibition [8]: < 50%
inhibition [9]: < 50%
inhibition [10]: < 50%
Ki [1]: 0.51 nM
inhibition [11]: < 50%
Ki [12]: 0.69 nM
Ki [13]: 296 nM
Ki [2]: 385 nM
Ki [14]: 39 nM
inhibition [15]: < 50%
inhibition [16]: < 50%
log K [3]: 3.84
Activity [17]: 44%
inhibition [18]: < 50%
inhibition [19]: > 50%
inhibition [20]: > 50%
inhibition [21]: < 50%
inhibition [22]: < 50%
inhibition [23]: inactive
inhibition [24]: < 50%
inhibition [25]: < 50%
inhibition [26]: < 50%
inhibition [27]: < 50%
inhibition [28]: > 50%
inhibition [29]: < 50%
Ki [30]: 54 nM
inhibition [31]: > 50%
inhibition [32]: < 50%
inhibition [33]: < 50%
inhibition [34]: < 50%
Ki [35]: 55 nM
inhibition [36]: < 50%
inhibition [37]: < 50%
inhibition [38]: < 50%
inhibition [39]: < 50%

SMILES: O=C(c1cnc2ccccc2n1)N(CCN1CC=C(c2ccccc2)CC1)c1ccccn1
Ki [1]: 8.27 nM
Ki [2]: 35 nM
log K [3]: 3.33

SMILES: O=C(c1cccc2ccccc12)N(CCN1CC=C(c2ccccc2)CC1)c1ccccn1
Ki [1]: 14 nM
Ki [2]: 252 nM
log K [3]: 4.07

SMILES: O=C(C1CCCCC1)N(CCN1CCN(c2ccccc2)CC1)c1ccccn1
Ki [4]: 198 nM
inhibition [5]: < 50%
inhibition [6]: < 50%
Ki [7]: 327 nM
inhibition [8]: < 50%
inhibition [9]: < 50%
inhibition [10]: < 50%
Ki [1]: 1.21 nM
inhibition [11]: < 50%
Ki [12]: 1.85 nM
Ki [13]: 1050 nM
Ki [2]: 946 nM
Ki [14]: 584 nM
inhibition [15]: < 50%
inhibition [16]: < 50%
log K [3]: 2.68
Activity [17]: 44%
inhibition [18]: < 50%
inhibition [19]: > 50%
inhibition [20]: > 50%
inhibition [21]: < 50%
inhibition [22]: < 50%
inhibition [23]: inactive
inhibition [24]: < 50%
inhibition [25]: < 50%
inhibition [26]: < 50%
inhibition [27]: < 50%
inhibition [28]: > 50%
inhibition [29]: < 50%
Ki [30]: 180 nM
inhibition [31]: > 50%
inhibition [32]: < 50%
inhibition [33]: < 50%
inhibition [34]: < 50%
Ki [35]: 246 nM
inhibition [36]: < 50%
inhibition [37]: < 50%
inhibition [38]: < 50%
inhibition [39]: < 50%
